Compound `COCC(C)N(C(=O)N(CCCl)N=O)C1(O)C(O)C(CO)OC(OCC(C)C)C1O` (centres undefined) has a melting point of 66 to 68 °C.
With `CSCCOc1ccc(OCC(O)CO)cc1` (centres undefined) the melting point was 59 to 61 °C.
With `CCOC(=O)CSCc1cccc(-c2c(CC(=O)Nc3ccc(F)cc3C(F)(F)F)c(=O)oc3cc(Cl)c(C)cc23)c1` the melting point was 106 to 108 °C.
Compound `C=CCOc1ccc(-c2nc3ccccc3o2)cc1` has a melting point of 95 to 96 °C.
Compound `CN(C)C(=O)COc1ccc(-c2ccc(C3COC(c4c(F)cccc4F)=N3)cc2)cc1` (centres undefined) has a melting point of 78 to 80 °C.
Compound `COc1ccc(CN(CC(=O)OC(C)(C)C)S(=O)(=O)c2ccc3c(Cl)cnc(Cl)c3c2)cc1` has a melting point of 117 to 118 °C.
Work on `COc1ccc(C(=O)c2ccnn2Cc2ccccc2)c(Cl)c1Cl` yielded a melting point of 102 to 105 °C.
Compound `CCS(=O)(=O)c1cccnc1S(N)(=O)=O` has a melting point of 211 to 212 °C.
In the case of `CC(=O)NC[C@H]1CN(c2ccc(-c3ncns3)c(F)c2)C(=O)O1`, the melting point is reported as 199 to 200 °C.
With `Cc1oc2ccc(N)cc2c1C` the melting point was 77 to 78 °C.
`COc1ccc2c(c1)C(=O)N(c1ccc3c(c1)n(C)c(=O)n3C)C2` gave a melting point of 268 to 270 °C.
Compound `CCCCNc1nc(-c2ccc(=O)n(C)n2)c(-c2ccccc2)nc1N` has a melting point of 253 to 255 °C.
In the case of `Cc1[nH]cnc1Cc1cn(C)c2ccccc2c1=O`, the melting point is reported as 110 to 113 °C.
`Cc1cc(C)n2nc(S(=O)(=O)Nc3c(Cl)ccc(C)c3Cl)nc2n1` gave a melting point of 286 to 288 °C.
`C=CCOc1c(Cl)cc(-c2ccc(=O)[nH]n2)cc1Cl` showed a melting point of 214 to 215 °C.
Work on `CC1(C)CC2(CC(c3ccc(F)cc3)=C1/C=C/[C@H]1C[C@H](O)CC(=O)O1)OCCO2` (relative stereo) yielded a melting point of 142 to 144 °C.
In the case of `CCC1(CCOCCNC(=O)NC2CCCCC2)Nc2cnc(C)c(C)c2N1` (centres undefined), the melting point is reported as 187 to 189 °C.
Compound `CCOC(=O)c1cc(-n2c(-c3ccccc3)cc3c2CCc2ccccc2-3)ccc1O` has a melting point of 134 to 135 °C.
Work on `CC(C)Cc1ccc(C(C)C(=O)NO)cc1` (centres undefined) yielded a melting point of 119 to 121 °C.
With `C#Cc1ccc(C(O)(Cn2cncn2)C(C)(C)C)cc1` (centres undefined) the melting point was 101 °C.
In the case of `CC(c1ccc(OCC(=O)Nc2ccc(-c3ccc(Cl)cc3)cc2)cc1)N1CCCC1` (centres undefined), the melting point is reported as 156 to 158 °C.
Work on `CN(C)c1ccc([N+](=O)[O-])cc1Cl` yielded a melting point of 71 to 73 °C.
Compound `O=CCCOC(c1ccccc1)(c1ccccc1)c1ccccc1` has a melting point of 97 to 98 °C.
`CCOC(=O)c1cc(Cl)cc(NCS(=O)(=O)c2ccc(Cl)cc2)c1Cl` gave a melting point of 173 to 175 °C.
In the case of `C#CCOc1ccc(C=NOC)cc1OC`, the melting point is reported as 68 to 69 °C.
For `Cc1nnc(F)c(-c2c(F)cc(F)cc2F)c1-c1ccc2ccccc2c1`, the melting point was 108 to 110 °C.
For `CCCCCCCN(Cc1ccc(CCC(C)C)cc1)C(=O)Nc1c(OC)ccc2ncccc12`, the melting point was 86 to 87 °C.
Compound `Cc1cc(C2N(c3ccccc3)CCN2c2ccccc2)c(O)cc1N(C)C` has a melting point of 207 to 212 °C.
For `Cc1c(CCc2ccc3nc(N)oc3c2)nc2cc(CCl)ccn12`, the melting point was over 300 °C.
For `O=C(NCCN1CCOCC1)Nc1nc2ccc(OC(c3c(Cl)cccc3Cl)C(F)(F)F)cc2s1` (centres undefined), the melting point was 150 to 160 °C.
Compound `COC12CC(c3nnc(-c4cncc(Br)c4)o3)CN(C)C1Cc1c[nH]c3cccc2c13` (centres undefined) has a melting point of 155 to 157 °C.
In the case of `CCCCc1nc(SCCO)c(C(=O)O)n1Cc1ccc(-c2ccccc2C(=O)O)cc1`, the melting point is reported as 194 °C.
`COc1ccc(CSc2nnc(CCl)s2)cc1` showed a melting point of 60.5 to 63.5 °C.
Compound `COC(=O)c1cnc(N)nc1OC` has a melting point of 221 °C.
For `c1c(NC23CC4CC(CC(C4)C2)C3)nc(N2CCNCC2)nc1NC12CC3CC(CC(C3)C1)C2`, the melting point was 210 to 220 °C.
`Cc1cc(Oc2ncc(C(F)(F)F)cc2Cl)nn1C(N)=O` gave a melting point of 101 to 104 °C.
For `COc1cc(-c2nc(NC(=O)c3cc4cc(C)ccc4n3CC(=O)O)sc2CCC2CCCCC2)c(OC)cc1Cl`, the melting point was 204 to 208 °C.
`CC(=O)Nc1ccc(O)cc1Cl` showed a melting point of 128 to 129 °C.
With `CN(C)C=Nc1c(Cl)cc(N=Cc2c(Cl)cccc2Cl)cc1Cl` the melting point was 84 to 86 °C.
In the case of `CC(=O)N1CCN(NC(=O)c2cccs2)CC1`, the melting point is reported as 212 to 213 °C.
Compound `CCCCc1nc2cccc(C(=O)OC)c2n1Cc1ccc(-c2ccccc2-c2nnn[nH]2)cc1` has a melting point of 153 to 155 °C.
Compound `CN1C(=O)[C@@H](NC(=O)OC(C)(C)C)CCc2ccccc21` has a melting point of 132 to 134 °C.
Work on `CCOC(C)=NOc1nc(C(F)(F)F)cc(=O)n1-c1cc(Oc2ccccc2[N+](=O)[O-])c(Cl)cc1F` yielded a melting point of 152 to 155 °C.
`CCCCCCNC(=O)NC1CCCc2sccc21` (centres undefined) showed a melting point of 122 to 124 °C.
Work on `COc1ccc(N2CC(CSCCCSc3ccnc(CNc4nc(C)nc(C)c4Cl)c3C)OC2=O)cc1` (centres undefined) yielded a melting point of 161 to 164 °C.
Compound `O=C(O)c1n[nH]c2ncccc12` has a melting point of 175 to 176 °C.
For `CC(C)OC(=O)N1CCC(c2nc3cc(-c4ccc(C(=O)NC5CC5)c(F)c4)ccc3o2)CC1`, the melting point was 162 to 165 °C.
With `O=C(Nc1ccccc1)OCC1CSC2=C(O1)c1ccccc1C(=O)C2=O` (centres undefined) the melting point was 250 to 252 °C.
For `COC(=O)c1ccc(Sc2ccccc2)cc1Sc1ccccc1`, the melting point was 124 °C.
Compound `O=C(c1cccc(-c2cc3ccccc3[nH]2)c1)c1cc2ccccc2[nH]1` has a melting point of 206 to 207 °C.
`COc1ccc(N2CCN(CCOCc3ccccc3)C2=O)cc1` showed a melting point of 54 to 55 °C.
Compound `COc1cccc(-c2cnc(C#N)c(C#N)n2)c1` has a melting point of 139 to 140 °C.
With `Cc1ccc(Cn2c(NC3CCN(CC(O)COc4ccccc4)CC3)nc3ccccc32)o1` (centres undefined) the melting point was 165 °C.
In the case of `O=C(CCc1ccc2ccccc2c1)c1cnc2sc3c(n12)CCCCC3`, the melting point is reported as 76 to 78 °C.
`On1c(-c2ccncc2)nc2ccc(Cn3ccnc3)cc21` showed a melting point of 198 °C.
`CCN(CC)C(=O)c1cc(-c2cccc([N+](=O)[O-])c2)c2sccc2c1` showed a melting point of 106 °C.
In the case of `COC(=O)c1cc(SC)cnc1C1=NC(C)(C(C)C)C(=O)N1` (centres undefined), the melting point is reported as 107 to 108 °C.
`c1ccc2c(c1)C[C@H]1CSC(=Nc3csc4ncccc34)N1C2` gave a melting point of 145 to 146 °C.
`CCCCC(c1ccc2[nH]c(=O)c(-c3ccccc3)nc2c1)n1ccnc1` (centres undefined) gave a melting point of 192 °C.
For `COC(=O)C1(CCCN2CCN(c3ccccc3)CC2)Sc2cc(OC)ccc2OCC1=O` (centres undefined), the melting point was 110 to 112 °C.
`O=C(Nc1ccccc1S(=O)(=O)N1CCCCC1)N[C@@H](Cc1ccc(Nc2nccc3cnccc23)cc1)C(=O)O` gave a melting point of 207 °C.
Compound `CC(C)[C@H](NC(=O)OC(C)(C)C)C(=O)NC1CCC(Nc2cccc3c2C(=O)c2ccccc2C3=O)CC1` (some centres undefined) has a melting point of 179 °C.
Compound `CC(C)(C)c1ccc(CBr)cc1NC(=O)CC1c2ccccc2Oc2ccccc21` has a melting point of 229 to 231 °C.
For `O=c1ccn(-c2cccc3c2OC(F)(F)O3)nc1-c1ccnn1-c1ccccc1`, the melting point was 105 to 107 °C.
In the case of `Cc1cc(-c2ccncc2)n2ncc(C(=O)c3ccccc3)c2n1`, the melting point is reported as 209 to 210 °C.
Compound `COc1cc(-c2nc(NC(C)C)c3c(C)c(C#N)sc3n2)cc(OC)c1OC` has a melting point of 191 to 193 °C.
Compound `CCCn1c(=O)c(N=O)c(N)n(CC2CCCCC2)c1=O` has a melting point of 231 to 233 °C.
`CC(=O)Oc1cc2c(c(OC(C)=O)c1)C1CCC3(C)C(O)CCC3C1CC2` (centres undefined) gave a melting point of 210 to 211 °C.
For `Cc1cc(-n2ccc(OCc3ccc(F)cc3)cc2=O)sc1C(=O)NCc1ccccc1`, the melting point was 195 to 197 °C.

Reference: a melting point compilation (Tetko et al.; mined from patent text by program, amines drawn as free bases though some values may be those of a salt)
